The source of these data is patent US5393742A, “Preparation for treating renal disease” (MECT Corporation, priority 1990, dated 1995).

Structures are written as SMILES. Like-named read-outs stand apart in the source and are kept apart here.

Series [1] deals with cilium cells from the human airway and cilia of frog palatine mucosa. Conditions: expectorant, by inhalation; cited from earlier work.
In series [2] the test system is Puromycin aminonucleoside (PAN) induced nephritis. The format is in vivo, Male Sprague-Dawley (SD) rats. Conditions: for Effect on renal disease, nephrosis or nephrotic syndrome (in words): PAN-induced nephritis; for Kidney Moist Weight / Weight Gain Rate: 14 days after PAN. The protocol: Effect on Puromycin aminonucleoside (PAN) induced nephritis, i.e. PAN induced nephrosis or nephrotic syndrome:
Male Sprague-Dawley (SD) rats weighing 160-180 g were used.
As the nephritis, i.e. nephrosis or nephrotic syndrome, causing substance, PAN (made by Sigma Co., Ltd.) was used. As the test compound, sodium N-acetylneuraminate (made by MECT Corporation) was used.
PAN was intraperitoneally administered in an amount of 80 mg per 1 kg of body weight to rats to cause nephritis, i.e. nephrosis or nephrotic syndrome. Then, the test compound (Groups I, II or III) or physiological saline solution (Group IV) was intraperitoneally administered 3 times a day (morning, noon and evening) for 14 consecutive days immediately after treatment with PAN as follows. As a positive control, methylprednisolone was subcutaneously administered to rats of Group V once a day (noon) for 14 consecutive days immediately after treatment with PAN. Moreover, 3, 6, 9 and 13 days after treatment with PAN, 5 ml water was loaded, and the urine was collected for 6 hours. Fourteen days after treatment with PAN, autopsies were made, the kidneys were extirpated and their moist weights were measured.
Group I: 0.1 mg Sodium N-acetylneuraminate per 1 kg of body weight was administered.
Group II: 0.5 mg Sodium N-acetylneuraminate per 1 kg of body weight was administered.
Group III: 1.0 mg Sodium N-acetylneuraminate per 1 kg of body weight was administered.
Group IV: 2.5 ml Physiological saline solution per 1 kg of body weight was administered.
Group V: 2 mg Methylprednisolone per 1 kg of body weight was administered.
Group VI: Normal rats (no drug was given).
Regarding the results of therapeutic effect for treating renal disease (nephrotic syndrome) of the given NANA compound per Example 1 above, it will be appreciated that the test compound sodium N-acetylneuraminate (Groups I, II and III) was dissolved in physiological saline and intraperitoneally administered, compared to intraperitoneal administration of physiological saline alone (Group IV) and subcutaneous administration of methylprednisolone (Group V).

For series [3] the following is noted: cited from earlier work.
Series [4] deals with rat GEC. Conditions: cited from earlier work.
Setting [5] is: 2.0 mg/kg s.c., once a day, positive control.

Take `CC(=O)N[C@H]1[C@H]([C@H](O)[C@H](O)CO)OC(O)(C(=O)O)C[C@@H]1O` (stereo partly drawn) [N-acetylneuraminic acid]: the “Effect on ciliary motion in the airway” value in series [1] is “directly promotes ciliary motion in the airway”. Moreover, in series [2], the “Effect on renal disease, nephrosis or nephrotic syndrome (in words)” value is given as “has an inhibitory effect on nephritis”. Also, the anti vital action entry in series [3] (article [1]) is “anti vital action”. Further, the anti allergic action entry in series [3] (article [4], guinea pigs) is given as “anti allergic action”. Also, the anti inflammatory action entry in series [3] (articles [2], [3]) is listed as “anti inflammatory action”.

As for `C[C@H]1C[C@@H]2[C@H]([C@@H](O)C[C@@]3(C)[C@H]2CC[C@]3(O)C(=O)CO)[C@@]2(C)C=CC(=O)C=C12` [Methylprednisolone, methylprednisolone, reference compound], in series [2] (setting [5]), the “Kidney Moist Weight” value worked out at 0.43 ± 0.01 g/100 g. Also, in series [2] (setting [5]), the “Weight Gain Rate” value is 107.7 ± 1.6%. Besides, the “Urinary Protein Content” value in series [2] (3rd Day, 2.0 mg/kg s.c., once a day) is 22.3 ± 2.1 mg/24 hours; in series [2] (6th Day, 2.0 mg/kg s.c., once a day), 55.8 ± 11.4 mg/24 hours; in series [2] (9th Day, 2.0 mg/kg s.c., once a day) it was 68.7 ± 13.1 mg/24 hours; in series [2] (13th Day, 2.0 mg/kg s.c., once a day), 56.1 ± 12.5 mg/24 hours. The “Effect on weight gain (in words)” value in series [2] (PAN rats, 14 days) is “greater inhibition of weight gain”. Further, the “Effect on increase in urinary protein content (in words)” value in series [2] (PAN rats, 6th, 9th and 13th day) is “inhibits increase in urinary protein content”. Further, the “Systemic side effect (in words)” value in series [2] (rat, in vivo) was “greater systemic side effect”.

Consider `C[C@]12C=CC(=O)C=C1CC[C@@H]1[C@@H]2[C@@H](O)C[C@@]2(C)[C@H]1CC[C@]2(O)C(=O)CO` [prednisolone, reference compound], for which, in series [2] (PAN rats, 14 days), the “Effect on increase of kidney moist weight (in words)” value is on record as “inhibits increase in kidney moist weight”.

For `CC(=O)N[C@H]1[C@H]([C@H](O)[C@H](O)CO)OC(O)(C(=O)[O-])C[C@@H]1O.[Na+]` (stereo partly drawn), the “Kidney Moist Weight” value is 0.47 ± 0.02 g/100 g in series [2] (0.1 mg/kg i.p., 3 times a day); 0.44 ± 0.02 g/100 g in series [2] (0.5 mg/kg i.p., 3 times a day); 0.42 ± 0.02 g/100 g in series [2] (1.0 mg/kg i.p., 3 times a day). Besides, the “Weight Gain Rate” value in series [2] (0.1 mg/kg i.p., 3 times a day) is given as 127.1 ± 2.0%; in series [2] (0.5 mg/kg i.p., 3 times a day), 128.4 ± 1.8%; in series [2] (1.0 mg/kg i.p., 3 times a day), 131.3 ± 1.9%. For the same compound, the “Urinary Protein Content” value was determined as 14.1 ± 1.1 mg/24 hours in series [2] (3rd Day, 0.1 mg/kg i.p., 3 times a day); 11.3 ± 0.8 mg/24 hours in series [2] (3rd Day, 0.5 mg/kg i.p., 3 times a day); 5.1 ± 0.4 mg/24 hours in series [2] (3rd Day, 1.0 mg/kg i.p., 3 times a day); 83.4 ± 8.6 mg/24 hours in series [2] (6th Day, 0.1 mg/kg i.p., 3 times a day); 49.1 ± 13.6 mg/24 hours in series [2] (6th Day, 0.5 mg/kg i.p., 3 times a day); 50.5 ± 10.7 mg/24 hours in series [2] (6th Day, 1.0 mg/kg i.p., 3 times a day). Moreover, the “Urinary Protein Content” value in series [2] (9th Day, 0.1 mg/kg i.p., 3 times a day) was 99.6 ± 14.2 mg/24 hours; in series [2] (9th Day, 0.5 mg/kg i.p., 3 times a day), 59.9 ± 14.7 mg/24 hours; in series [2] (9th Day, 1.0 mg/kg i.p., 3 times a day), 51.2 ± 15.6 mg/24 hours; in series [2] (13th Day, 0.1 mg/kg i.p., 3 times a day), 109.9 ± 12.9 mg/24 hours; in series [2] (13th Day, 0.5 mg/kg i.p., 3 times a day), 94.5 ± 30.4 mg/24 hours; in series [2] (13th Day, 1.0 mg/kg i.p., 3 times a day) it was 77.9 ± 17.9 mg/24 hours. In addition, the “Systemic side effect (in words)” value in series [2] (PAN rats, weight gain as index of systemic effect) is listed as “does not show such side effect”. Moreover, the “Effect on renal disease, nephrosis or nephrotic syndrome (in words)” value in series [2] was “has a therapeutic effect on renal disease”.

In the case of `CN(C)c1ncnc2c1ncn2[C@@H]1O[C@H](CO)[C@@H](N)[C@H]1O` [PAN, puromycin aminonucleoside], the “Effect on heparan sulfate proteoglycan (HSPG)” value in series [4] is given as “reduces heparan sulfate proteoglycan (HSPG)”.
